According to US20110301162A1, “AURORA KINASE MODULATORS AND METHODS OF USE” (AMGEN INC., priority 2008, published 2011):

Key:
AuroraB = target: T1, AuroraB (Homo sapiens, UniProt Q96GD4); assay: AuroraB Homogeneous Time Resolved Fluorescent (HTRF) kinase assay; assay type: biochemical; settings: average; ATP 23 μM; read-out: AurB_IC50_IP (uM Avg)
T1 construct: 20 μL of AuroraB FL His; His
Protocol: The AuroraB HTRF assay begins with AuroraB in the presence of ATP phosphorylating the biotinylated peptide Histone H3. The reaction incubates for about 90 min. the reaction is quentched by addition of detection reagents, which stop the reaction by diluting out the enzyme and chelating the metals due to the presence of EDTA. After addition, the assay is incubated for about 60 min to allow detection reagents to equilibrate.
The AuroraB HTRF assay comprises 1 μL of compound in 100% DMSO, 20 μL of ATP and biotinylated Histone H3, and 20 μL of AuroraB FL His for a final volume of 41 μL. The final concentration of Histone H3 is 0.1 μM. The final concentration of ATP is 23 μM (Km(app)=23 μM+/−2.6) and the final concentration of AuroraB is 400 pM. Buffer conditions are as follows: 50 mM HEPES pH 7.5, 5 mM NaCl, 0.5 mM MgCl, 0.5 mM MnCl, 2 mM DTT, 0.05% BSA.
(§1) The assay is quenched and stopped with 160 μL of detection reagent. Detection reagents are as follows: Buffer made of 50 mM Tris, pH 7.5, 100 mM NaCl, 3 mM EDTA, 0.05% BSA, 0.1% Tween20. Added to this buffer prior to reading is Steptavidin allophycocyanin (SA-APC) at a final conc in the assay of 0.001 mg/mL, and europilated anti-phosphoHistoneH3 Ab (Eu-anti-HisH3) at a final conc of 0.064 nM.
(§2) The assay plate is read in either a Discovery or a RubyStar. The eu-anti-HisH3 is excited at 320 nm and emits at 615 nm to excite the SA-APC which in turn emits at 655 nm. The ratio of SA-APC at 655 nm (excited due to close proximity to the Eu-anti-HisH3 because of phosphorylation of the peptide) to free Eu-anti-HisH3 at 615 nm will give substrate phosphorylation.
Many of the Examples described herein were tested, and fund to be active compounds. Table I includes related biological data, which may be interpreted using the activity gauge below.

HeLa cells = assay: HeLa cell 24 hr ploidy assay; assay type: cell-based; settings: Homo sapiens, 24 hrs treatment, DNA ploidy, average, read-out: 24h_4N Ploidy EC50_IP (uM Avg)
Protocol: The purpose of this assay is to evaluate the ability of selected individual compounds to induce Deoxyribonucleic acid (DNA) content (ploidy) in cells through failed cell division. Cell cycle analysis is a rapid and efficient way to evaluate the status of DNA content (ploidy) of a given cell. HeLa cells (1×10^4 HeLa cells/well) in 100 ul of media (MEM+10% FBS) were plated in 96-well plates (Packard View) and cultured for 24 hrs at 37° C. maintained in a 5% CO2 atmosphere. The following day, cells were treated for 24 hrs with inhibitor compounds (10 pt. Dose ranging from 0.0024-1.25 umol/L). The compounds were serially diluted in DMSO (0.25% final concentration). The cells were fixed (3.7% Formaldehyde and 1% glutaraldehyde) and permeabilized (1×PBS with 1% BSA an d0.2% Triton X-100) in preparation for nuclear staining. The well plates were stained for 45 minutes at RT in the dark using Hoechest 33342 nuclear stain at 0.5 ug.ml (Stock of 10 mg/ml, Invitrogen, Calif., Cat #H3570). The nuclear stain was removed by aspiration and the cells were washed with wash buffer. A Cellomics Array Scan Vti plate reader was used to acquire the DNA ploidy data of the cells using Cell Cycle bioapplication. Numbers for each of “valid cell count/well”, “% of 4N cells” and “% of >4Ncells” were calculated with the assistance of an Activity Base 5.1ca software and dose curves were generated using an XLFit software. With XLFit, final EC50 IP and EC50 transit values, as well as the Max and Min, were calculated for each curve.

AuroraA-TPX2 = target: T2, AuroraA-TPX2 (Homo sapiens, UniProt O14965); assay: AuroraA-TPX2 Homogeneous Time Resolved Fluorescent (HTRF) kinase assay; assay type: biochemical; settings: average; ATP about 1 μM; read-out: AurA_IC50_IP (uM Avg)
T2 construct: 20 μL of AuroraA-TPX2 KD GST; GST
T2 sequence (O14965 133-383 limits assumed): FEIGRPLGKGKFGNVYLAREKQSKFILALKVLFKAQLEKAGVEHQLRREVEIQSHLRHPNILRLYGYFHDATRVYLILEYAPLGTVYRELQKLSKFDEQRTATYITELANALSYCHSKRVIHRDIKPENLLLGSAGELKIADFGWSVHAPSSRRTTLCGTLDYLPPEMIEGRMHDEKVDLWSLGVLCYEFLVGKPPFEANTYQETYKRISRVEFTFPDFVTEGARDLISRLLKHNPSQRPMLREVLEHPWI
T2 sequence (Q9ULW0 1-43 partner limits assumed): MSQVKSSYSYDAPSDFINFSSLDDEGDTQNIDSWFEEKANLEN
Protocol: The Aurora-A HTRF assay begins with Aurora-A in the presence of ATP phosphorylating the biotinylated peptide PLK. The reaction incubates for about 120 min. Detection reagents are added to quench the reaction. These agents stop the reaction by diluting out the enzyme and chelating the metals due to the presence of EDTA. After addition, the assay is incubated overnight to allow the detection reagents to equilibrate.
The AuroraA HTRF assay comprises 1 μL of compound in 100% DMSO, 20 μL of ATP and biotinylated PLK, and 20 μL of AuroraA-TPX2 KD GST for a final volume of about 41 μL. The final concentration of PLK is about 1 μM. The final concentration of ATP is about 1 μM (Km(app)=1 μM+/−0.1) and the final concentration of AuroraA is about 5 nM. Buffer conditions are as follows: 60 mM HEPES pH 7.5, 25mM NaCl, 10 mM MgCl, 2 mM DTT, 0.05% BSA.
as §1, with “0.0005” for “0.001”, “anti-phosphoPLK” for “anti-phosphoHistoneH3”, “(Eu-anti-PLK)” for “(Eu-anti-HisH3)”, “0.02” for “0.064”
as §2, with “eu-anti-PLK” for “eu-anti-HisH3”, “Eu-anti-PLK” for “Eu-anti-HisH3”
Many of the Examples described herein were tested and found to be active compounds. Table I includes related biological data, which may be interpreted using the activity gauge below.

T1 sequence (Q96GD4 whole entry): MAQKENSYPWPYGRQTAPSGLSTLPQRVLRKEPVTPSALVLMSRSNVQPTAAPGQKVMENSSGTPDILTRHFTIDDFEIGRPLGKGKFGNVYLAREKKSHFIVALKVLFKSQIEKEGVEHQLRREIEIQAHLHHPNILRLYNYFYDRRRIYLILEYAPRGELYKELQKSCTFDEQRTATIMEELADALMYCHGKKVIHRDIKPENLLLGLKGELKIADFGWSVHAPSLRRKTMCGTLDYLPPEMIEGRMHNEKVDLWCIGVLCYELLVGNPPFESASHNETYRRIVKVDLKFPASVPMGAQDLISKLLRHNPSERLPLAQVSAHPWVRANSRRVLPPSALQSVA

IC50 (AuroraB)	EC50 (HeLa cells)	IC50 (AuroraA-TPX2)	SMILES
1 to 5 µM	0.1 to 0.5 µM		CSc1nccc(Oc2ccc(Nc3nnc(-c4ccccc4)c4ccccc34)cc2)n1 [Example 43, N-(4-((2-(methylthio)-4-pyrimidinyl)oxy)phenyl)-4-phenyl-1-phthalazinamine]
< 0.1 µM		0.1 to 0.5 µM	Clc1ccc(-c2nnc(Nc3ccc(Oc4ccnc(/C=C/c5ccccc5)c4)cc3)c3ccccc23)cc1 [Example 40, 4-(4-chlorophenyl)-N-(4-((2-((E)-2-phenylethenyl)-4-pyridinyl)oxy)phenyl)-1-phthalazinamine]
1 to 5 µM	1 to 5 µM		CNCCNc1nccc(Sc2ccc(Nc3nnc(-c4ccccc4)c4ccccc34)cc2)n1 [Example 33, N-methyl-N′-(4-((4-((4-phenyl-1-phthalazinyl)amino)phenyl)sulfanyl)-2-pyrimidinyl)-1,2-ethanediamine]
< 0.1 µM	0.1 to 0.5 µM	0.1 to 0.5 µM	Cc1ccc(-c2nnc(Nc3ccc(Sc4ccnc(-c5cc6ccccc6[nH]5)n4)cc3)c3ccccc23)cn1 [Example 39, N-(4-((2-(1H-indol-2-yl)-4-pyrimidinyl)sulfanyl)phenyl)-4-(6-methyl-3-pyridinyl)-1-phthalazinamine]
< 0.1 µM	0.1 to 0.5 µM	0.1 to 0.5 µM	CNc1cc(Sc2ccc(Nc3nnc(-c4ccc(Cl)cc4)c4ccccc34)cc2)ccn1 [Example 28, 4-(4-chlorophenyl)-N-(4-((2-(methylamino)-4-pyridinyl)thio)phenyl)-1-phthalazinamine]
< 0.1 µM	0.1 to 0.5 µM	0.1 to 0.5 µM	Nc1cc(Sc2ccc(Nc3nnc(-c4ccc(Cl)cc4)c4ccccc34)cc2)ccn1 [Example 27, N-(4-((2-amino-4-pyridinyl)thio)phenyl)-4-(4-chlorophenyl)-1-phthalazinamine]
< 0.1 µM	< 0.1 µM	0.1 to 0.5 µM	Clc1ccc(-c2nnc(Nc3ccc(Oc4ccnc(-c5nc6ccccc6[nH]5)c4)cc3)c3ccccc23)cc1 [Example 38, N-(4-((2-(1H-benzimidazol-2-yl)-4-pyridinyl)oxy)phenyl)-4-(4-chlorophenyl)-1-phthalazinamine]
0.1 to 0.5 µM	0.1 to 0.5 µM	0.1 to 0.5 µM	CNC(=O)c1cc(Oc2ccc(Nc3nnc(-c4ccc(Cl)cc4)c4ccccc34)cc2)ccn1 [Example 26, 4-((4-((4-(4-chlorophenyl)-1-phthalazinyl)amino)phenyl)oxy)-N-methyl-2-pyridinecarboxamide]
0.1 to 0.5 µM	1 to 5 µM		c1ccc(-c2nnc(Nc3ccc(Sc4ccnc(-c5cc6ccccc6[nH]5)n4)cc3)c3ccccc23)cc1 [Example 42, N-(4-((2-(1H-indol-2-yl)-4-pyrimidinyl)sulfanyl)phenyl)-4-phenyl-1-phthalazinamine]
< 0.1 µM	0.1 to 0.5 µM	0.1 to 0.5 µM	OCCNc1nccc(Sc2ccc(Nc3nnc(-c4ccccc4)c4ccccc34)cc2)n1 [Example 31, 2-((4-((4-((4-phenyl-1-phthalazinyl)amino)phenyl)sulfanyl)-2-pyrimidinyl)amino)ethanol]
< 0.1 µM	< 0.1 µM	< 0.1 µM	OCCNc1nccc(Sc2ccc(Nc3nnc(-c4ccc(Cl)cc4)c4ccccc34)cc2)n1 [Example 32, 2-((4-((4-((4-(4-chlorophenyl)-1-phthalazinyl)amino)phenyl)sulfanyl)-2-pyrimidinyl)amino)ethanol]
< 0.1 µM	< 0.1 µM	< 0.1 µM	Cc1csc(-c2nnc(Nc3ccc(Sc4ccnc(-c5cc6ccccc6[nH]5)n4)cc3)c3ccccc23)c1 [Example 37, N-(4-((2-(1H-indol-2-yl)-4-pyrimidinyl)sulfanyl)phenyl)-4-(4-methyl-2-thiophenyl)-1-phthalazinamine]
0.1 to 0.5 µM	1 to 5 µM	0.1 to 0.5 µM	CS(=O)(=O)CCNc1cc(Oc2ccc(Nc3nnc(-c4ccc(Cl)cc4)c4ccccc34)cc2)ccn1 [Example 29, 4-(4-chlorophenyl)-N-(4-((2-((2-(methylsulfonyl)ethyl)amino)-4-pyridinyl)oxy)phenyl)-1-phthalazinamine]
0.5 to 1 µM	0.1 to 0.5 µM	1 to 5 µM	CNCCNc1nccc(Sc2ccc(Nc3nnc(-c4ccc(Cl)cc4)c4ccccc34)cc2)n1 [Example 34, N-(4-((4-((4-(4-chlorophenyl)-1-phthalazinyl)amino)phenyl)sulfanyl)-2-pyrimidinyl)-N′-methyl-1,2-ethanediamine]
< 0.1 µM	< 0.1 µM	< 0.1 µM	Clc1ccc(-c2nnc(Nc3ccc(Sc4ccnc(-c5cc6ccccc6[nH]5)n4)cc3)c3ccccc23)cc1 [Example 36, 4-(4-chlorophenyl)-N-(4-((2-(1H-indol-2-yl)-4-pyrimidinyl)sulfanyl)phenyl)-1-phthalazinamine]
0.1 to 0.5 µM	0.1 to 0.5 µM	1 to 5 µM	CNC(=O)c1cc(Sc2ccc(Nc3nnc(-c4ccc(Cl)cc4)c4ccccc34)cc2)ccn1 [Example 25, 4-((4-((4-(4-chlorophenyl)-1-phthalazinyl)amino)phenyl)thio)-N-methyl-2-pyridinecarboxamide]
< 0.1 µM		0.1 to 0.5 µM	Cc1ccc(-c2nnc(Nc3ccc(Sc4ccnc(-c5cc6ccccc6[nH]5)n4)cc3)c3ccccc23)cc1N [Example 41, 4-(3-amino-4-methylphenyl)-N-(4-((2-(1H-indol-2-yl)-4-pyrimidinyl)sulfanyl)phenyl)-1-phthalazinamine]
